From patent US20250032490A1, “THERAPEUTIC REGIMENS FOR TREATMENT OF PAROXYSMAL NOCTURNAL HEMOGLOBINURIA” (Achillion Pharmaceuticals, Inc., priority 2017, published 2025)

Assay: Phase 2 study in PNH subjects: reticulocyte count
Format: in vivo, human
Conditions: Compound 1 100 mg TID + IV eculizumab
Description: The starting dose of compound 1 is based upon group assignment. The Group 1 dose is 100mg three times daily (TID). The Group 2 dose is 150 mg TID. The Group 3 dose is 200 mg TID. The Group 4 dose will receive the optimal dose determined from Groups 1-3.
All doses are taken approximately 15-30 minutes after completion of a meal or snack.
This will be followed by a long-term extension phase.
2 subjects in the first dose level of 100 mg TID have been completed and data collected through 4 weeks. Data collected include lactate dehydrogenase (LDH) levels, hemoglobin levels, reticulocytes, PNH red blood cells (Type III) percentage, C3 Fragment Deposition percentage, and bilirubin levels and their changes from baseline.
A reticulocyte count is a pharmacodynamic marker that is measured from blood drawn on Day 1, Week 1, Week 2, and Week 4 (FIGS. 15A & 15B and Table 17). A reticulocyte count measures the number of immature red blood cells in a blood sample. People who have PNH may have elevated reticulocyte counts because their bone marrow is producing a lot of new red blood cells.

CC(=O)c1nn(CC(=O)N2C[C@H](F)C[C@H]2C(=O)Nc2cccc(Br)n2)c2ccc(-c3cnc(C)nc3)cc12 [Compound 1, (2S,4R)-1-(2-(3-acetyl-5-(2-methylpyrimidin-5-yl)-1H-indazol-1-yl)acetyl)-N-(6-bromopyridin-2-yl)-4-fluoropyrrolidine-2-carboxamide]
RETICULOCYTES Observed (subject 003-001, DAY 1 (baseline)): 159 10^9/L
RETICULOCYTES CFB (change from baseline) (subject 003-001, DAY 1): 0 10^9/L
RETICULOCYTES CFB (change from baseline) (subject 003-001, WEEK 1): −39 10^9/L
RETICULOCYTES Observed (subject 003-001, WEEK 1): 120 10^9/L
RETICULOCYTES CFB (change from baseline) (subject 003-001, WEEK 2): −34 10^9/L
RETICULOCYTES Observed (subject 003-001, WEEK 2): 125 10^9/L
RETICULOCYTES CFB (change from baseline) (subject 003-001, WEEK 4): −64 10^9/L
RETICULOCYTES Observed (subject 003-001, WEEK 4): 95 10^9/L
RETICULOCYTES Observed (subject 003-002, DAY 1 (baseline)): 250 10^9/L
RETICULOCYTES CFB (change from baseline) (subject 003-002, DAY 1): 0 10^9/L
RETICULOCYTES CFB (change from baseline) (subject 003-002, WEEK 1): −106 10^9/L
RETICULOCYTES Observed (subject 003-002, WEEK 1): 144 10^9/L
RETICULOCYTES CFB (change from baseline) (subject 003-002, WEEK 2): −85 10^9/L
RETICULOCYTES Observed (subject 003-002, WEEK 2): 165 10^9/L
RETICULOCYTES CFB (change from baseline) (subject 003-002, WEEK 4): −118 10^9/L
RETICULOCYTES Observed (subject 003-002, WEEK 4): 132 10^9/L
